Assays:
Assay in all cases: relative viability (nuclei count vs DMSO), 5 days (fraction); higher = more cells survive
TGX 221 + Pemetrexed = compound: CC1=CN2C(=O)C=C(N=C2C(=C1)C(C)NC3=CC=CC=C3)N4CCOCC4 [TGX 221] + Nc1nc2[nH]cc(CCc3ccc(C(=O)N[C@@H](CCC(=O)O)C(=O)O)cc3)c2c(=O)[nH]1 [Pemetrexed] (partner 0.2 µM)
Procedure, shortened: (§1)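 Relative viability is defined as nuclei in treated wells over nuclei in vehicle wells. Duplicate plates were run and medians reported. Lung cancer cell lines in 1536-well plates were dosed by pin tool one day after seeding, with one drug or with a fixed anchor-drug dose plus five library-drug doses (not always all listed) in √10 steps, and nuclei were counted after 5 days.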

TGX 221 + Pictilisib = compound: CC1=CN2C(=O)C=C(N=C2C(=C1)C(C)NC3=CC=CC=C3)N4CCOCC4 [TGX 221] + CS(=O)(=O)N1CCN(Cc2cc3nc(-c4cccc5[nH]ncc45)nc(N4CCOCC4)c3s2)CC1 [Pictilisib] (partner 1 µM)
Procedure, shortened: as §1

[1] = compound: O=C(CCCCCCNC(=O)c1cnc(N(c2ccccc2)c2ccccc2)nc1)NO [Ricolinostat] + CC(=O)Nc1cccc(-n2c(=O)n(C3CC3)c(=O)c3c(Nc4ccc(I)cc4F)n(C)c(=O)c(C)c32)c1 [Trametinib] (partner 0.02 µM)
Procedure, shortened: as §1

[2] = compound: C1=CC=C(C(=C1)C2=CC=C(C=C2)C3=CSC4=C3C(=C(C(=O)N4)C#N)O)O + O=C(c1cc(Cc2n[nH]c(=O)c3ccccc23)ccc1F)N1CCN(C(=O)C2CC2)CC1 [Olaparib] (partner 8 µM)
Procedure, shortened: as §1

| Cell Line | relative viability (TGX 221 + Pemetrexed; first compound 0.08 µM) | relative viability (TGX 221 + Pemetrexed; first compound 0.253 µM) | relative viability (TGX 221 + Pemetrexed; first compound 0.8 µM) | relative viability (TGX 221 + Pemetrexed; first compound 2.53 µM) | relative viability (TGX 221 + Pemetrexed; first compound 8 µM) | relative viability (TGX 221 + Pictilisib; first compound 0.08 µM) | relative viability (TGX 221 + Pictilisib; first compound 0.253 µM) | relative viability (TGX 221 + Pictilisib; first compound 0.8 µM) | relative viability (TGX 221 + Pictilisib; first compound 2.53 µM) | relative viability (TGX 221 + Pictilisib; first compound 8 µM) | relative viability ([1]; first compound 0.08 µM) | relative viability ([1]; first compound 0.253 µM) | relative viability ([1]; first compound 0.8 µM) | relative viability ([1]; first compound 2.53 µM) | relative viability ([2]; first compound 0.253 µM) | relative viability ([2]; first compound 0.8 µM) | relative viability ([2]; first compound 2.53 µM) | relative viability ([2]; first compound 8 µM) | relative viability ([2]; first compound 0.08 µM) |
| --- | --- | --- | --- | --- | --- | --- | --- | --- | --- | --- | --- | --- | --- | --- | --- | --- | --- | --- | --- |
| HCC-366 | 0.158 | 0.146 | 0.184 | 0.165 | 0.16 | 0.103 | 0.152 | 0.102 | 0.147 | 0.0862 | 0.372 | 0.32 | 0.314 | 0.342 | 0.384 | 0.369 | 0.41 | 0.302 | – |
| NCI-H2126 | 0.693 | 0.574 | 0.673 | 0.615 | 0.656 | 0.452 | 0.498 | 0.488 | 0.458 | 0.518 | 0.531 | 0.548 | 0.564 | 0.52 | 0.976 | 0.95 | 0.955 | 0.786 | 0.888 |
| NCI-H2023 | 0.263 | 0.205 | 0.223 | 0.214 | 0.189 | 0.23 | 0.244 | 0.252 | 0.215 | 0.228 | 0.51 | 0.637 | 0.558 | 0.536 | 0.49 | 0.495 | 0.487 | 0.607 | 0.467 |
| SK-LU-1 | 0.923 | 0.89 | 0.907 | 0.898 | 0.838 | 0.601 | 0.536 | 0.576 | 0.553 | 0.568 | 0.476 | 0.52 | 0.475 | 0.396 | 0.431 | 0.435 | 0.608 | 0.408 | 0.465 |
| NCI-H2347 | 0.467 | 0.414 | 0.445 | 0.386 | 0.389 | 0.608 | 0.798 | 0.433 | 0.58 | 0.428 | 0.298 | 0.304 | 0.276 | 0.459 | 0.632 | 0.569 | 0.634 | 0.579 | 0.645 |
| HCC-15 | 0.212 | 0.237 | 0.203 | 0.209 | 0.203 | 0.806 | 0.706 | 0.784 | 0.71 | 0.782 | 0.352 | 0.397 | 0.379 | 0.333 | 0.789 | 0.705 | 0.728 | 0.802 | 0.797 |
| HCC-44 | 0.681 | 0.646 | 0.655 | 0.643 | 0.668 | 0.648 | 0.571 | 0.615 | 0.555 | 0.541 | 1.11 | 1.02 | 1.02 | 1.04 | 1.14 | 1.01 | 1.01 | 0.887 | 0.979 |
| NCI-H1355 | 1.03 | 1.02 | 1.05 | 0.998 | 0.893 | 0.444 | 0.437 | 0.426 | 0.362 | 0.365 | 0.411 | 0.43 | 0.346 | 0.412 | 0.956 | 0.745 | 0.775 | 0.553 | 0.734 |
| NCI-H2405 | 1.01 | 1.05 | 1.07 | 0.952 | 0.885 | 0.36 | 0.499 | 0.426 | 0.398 | 0.366 | 0.591 | 0.682 | 0.666 | 0.82 | – | 0.928 | 0.825 | 0.878 | 0.896 |
| EKVX | 0.404 | 0.356 | 0.34 | 0.375 | 0.395 | 0.337 | 0.458 | 0.448 | 0.39 | 0.404 | 0.283 | 0.282 | 0.426 | 0.368 | 0.929 | 0.778 | 0.856 | 0.716 | 0.98 |
| NCI-H1993 | 0.567 | 0.545 | 0.632 | 0.604 | 0.246 | 0.709 | 0.886 | 0.759 | 0.864 | 0.787 | 0.5 | 0.583 | 0.564 | 0.665 | 1.67 | 0.894 | 1.01 | 0.882 | 0.988 |
| HOP-62 | 0.315 | 0.279 | 0.289 | 0.438 | 0.376 | 0.694 | 0.742 | 0.544 | 0.682 | 0.689 | 0.335 | 0.391 | 0.384 | 0.432 | 0.471 | 0.515 | 0.844 | 0.233 | 0.592 |
| SK-MES-1 | 0.932 | 0.925 | 0.948 | 0.842 | 0.693 | 0.406 | 0.363 | 0.304 | 0.328 | 0.289 | 0.548 | 0.537 | 0.656 | 0.734 | 0.816 | 0.858 | 0.651 | 0.611 | 0.863 |
| NCI-H1755 | 0.461 | 0.344 | 0.38 | 0.361 | 0.39 | 0.412 | 0.381 | 0.406 | 0.372 | 0.425 | 0.694 | 0.678 | 0.814 | 0.779 | 0.901 | 0.875 | 0.841 | 0.916 | 0.989 |
| NCI-H838 | 0.255 | 0.232 | 0.235 | 0.232 | 0.231 | 0.427 | 0.364 | 0.425 | 0.495 | 0.404 | 0.495 | 0.546 | 0.548 | 0.375 | 0.963 | 0.811 | 0.784 | 0.773 | 0.522 |
| NCI-H322M | 0.58 | 0.619 | 0.604 | 0.579 | 0.565 | 0.399 | 0.479 | 0.525 | 0.477 | 0.478 | 0.431 | 0.539 | 0.611 | 0.564 | 0.742 | 0.863 | 0.519 | 0.748 | 0.69 |
| NCI-H441 | 0.238 | 0.224 | 0.231 | 0.28 | 0.266 | 0.486 | 0.447 | 0.456 | 0.511 | 0.508 | 0.259 | 0.521 | 0.629 | 0.697 | 0.539 | 0.64 | 0.716 | 0.462 | 0.548 |
